The values below come from patent US6780403B1, “Deodorants” (Kao Corporation, priority 1999, dated 2004).

A short description of data set [1]: acid dissociation index (pK1, pK2) at 25° C. The data set is classed as physicochemical. The note with it: for Difference (pK2 - pK1): 25° C., method (D); for first acid dissociation index / second acid dissociation index: for the dibasic acid, source of value not given. The method, then:
The organic dibasic acid used as a deodorant in the present invention is selected from organic dibasic acids and/or salts thereof having a difference between the first acid dissociation index and the second acid dissociation index of 1.7 or more at 25° C. (hereinafter, described as deodorant organic dibasic acid). The acid dissociation index can be measured, for example, by a method (A) described in The Journal of Physical Chemistry vol.
Further, previously obtained data may also be used. […] Further, the organic dibasic acid can be selected based on data bases (D) such as pKa BASE of Compudrug, and the like. The first acid dissociation index and the second acid dissociation index of the organic dibasic acid may be determined by any of the methods (A) to (D).

The conditions of data set [2]: 25° C.; method (D), data bases such as pKa BASE of Compudrug; cited from earlier work.

Turning to `O=C(O)[C@@H]1CCCCC[C@H]1C(=O)O` (relative stereo) [Trans-1,2-cycloheptanedicarboxylic acid], the “Difference (pK2 - pK1)” value in data set [1] is 1.88. Also, in data set [2], the “First acid dissociation index (pK1)” value is listed as 4.30 and the “Second dissociation index (pK2)” value was 6.18.
As to `O=C(O)[C@@H]1CCCC[C@H]1C(=O)O` (relative stereo) [Trans-1,2-cyclohexanedicarboxylic acid], the “Difference (pK2 - pK1)” value in data set [1] came out at 1.76.
Regarding `O=C(O)[C@@H]1CCCCCC[C@H]1C(=O)O` (relative stereo) [Trans-1,2-cyclooctanedicarboxylic acid], the “Difference (pK2 - pK1)” value in data set [1] was 1.87. In data set [2], the “First acid dissociation index (pK1)” value is reported as 4.37 and the “Second dissociation index (pK2)” value is 6.24.
In the case of `O=C(O)[C@@H]1CCC[C@H]1C(=O)O` (relative stereo) [Trans-1,2-cyclopentandicarboxylic acid], in data set [1], the “Difference (pK2 - pK1)” value is 1.85. Also, in data set [2], the “First acid dissociation index (pK1)” value is given as 4.14 and the “Second dissociation index (pK2)” value is reported as 5.99.
As to `CCC(CC)(C(=O)O)C(=O)O` [2,2-diethylmalonic acid], in data set [1], the “Difference (pK2 - pK1)” value is 5.27. For the same molecule, in data set [2], the “First acid dissociation index (pK1)” value is 2.15 and the “Second dissociation index (pK2)” value is reported as 7.42.
On to `CC(C)C(C(=O)O)(C(=O)O)C(C)C` [2,2-diisopropylmalonic acid], for which the “Difference (pK2 - pK1)” value in data set [1] is listed as 6.73. For the same molecule, in data set [2], the “First acid dissociation index (pK1)” value was 2.12 and the “Second dissociation index (pK2)” value is on record as 8.85.
For `CC(C)(C(=O)O)C(=O)O` [2,2-dimethylmalonic acid], the “Difference (pK2 - pK1)” value in data set [1] was 2.70.
Regarding `CCCC(CCC)(C(=O)O)C(=O)O` [2,2-dipropylmalonic acid], the “Difference (pK2 - pK1)” value in data set [1] amounted to 5.32. In addition, in data set [2], the “First acid dissociation index (pK1)” value was 1.86 and the “Second dissociation index (pK2)” value was 7.18.
Take `CC(C)(C)C(C(=O)O)C(C(=O)O)C(C)(C)C` (centres unmarked) [2,3-di-t-butylsuccinic acid]: the “Difference (pK2 - pK1)” value in data set [1] is recorded as 8.06. Further, in data set [2], the “First acid dissociation index (pK1)” value is reported as 2.20 and the “Second dissociation index (pK2)” value is 10.26.
In the case of `CCC(C(=O)O)C(CC)C(=O)O` (centres unmarked) [2,3-diethylsuccinic acid], the “Difference (pK2 - pK1)” value in data set [1] is listed as 2.83. Moreover, in data set [2], the “First acid dissociation index (pK1)” value is 3.63 and the “Second dissociation index (pK2)” value was 6.46.
In the case of `CC(C(=O)O)C(C)C(=O)O` (centres unmarked) [2,3-dimethylsuccinic acid], in data set [1], the “Difference (pK2 - pK1)” value stood at 2.08. Moreover, in data set [2], the “First acid dissociation index (pK1)” value is 3.92 and the “Second dissociation index (pK2)” value is on record as 6.00.
As for `CCC(CC)C(CC)(CCC(=O)O)C(=O)O` (centres unmarked) [2-ethyl-2-(1-ethylpropyl)glutaric acid], the “Difference (pK2 - pK1)” value in data set [1] is 5.16. In data set [2], the “First acid dissociation index (pK1)” value is given as 2.15 and the “Second dissociation index (pK2)” value is 7.31.
Take `CCC(C(=O)O)(C(=O)O)C(C)C` [2-ethyl-2-isopropylmalonic acid]: the “Difference (pK2 - pK1)” value in data set [1] was 6.07. Besides, in data set [2], the “First acid dissociation index (pK1)” value is listed as 2.03 and the “Second dissociation index (pK2)” value was 8.10.
Regarding `CCC(C)(C(=O)O)C(=O)O` [2-ethyl-2-methylmalonic acid], the “Difference (pK2 - pK1)” value in data set [1] is listed as 4.35. In data set [2], the “First acid dissociation index (pK1)” value is 2.20 and the “Second dissociation index (pK2)” value is listed as 6.55.
On to `CCC(C(=O)O)C(C)C(=O)O` (centres unmarked) [2-ethyl-3-methylsuccinic acid], for which, in data set [1], the “Difference (pK2 - pK1)” value is reported as 2.90. In data set [2], the “First acid dissociation index (pK1)” value is 3.20 and the “Second dissociation index (pK2)” value is reported as 6.10.
In the case of `CCC(C(=O)O)C(=O)O` [2-ethylmalonic acid], the “Difference (pK2 - pK1)” value in data set [1] turned out to be 2.85. In data set [2], the “First acid dissociation index (pK1)” value is recorded as 2.96 and the “Second dissociation index (pK2)” value is given as 5.81.
As for `CC(C)C(C(=O)O)C(=O)O` [2-isopropylmalonic acid], in data set [1], the “Difference (pK2 - pK1)” value stood at 2.96. Moreover, in data set [2], the “First acid dissociation index (pK1)” value is reported as 2.92 and the “Second dissociation index (pK2)” value is on record as 5.88.
On to `CC1CCCCC1(CC(=O)O)CC(=O)O` (centres unmarked) [2-methylcyclohexyl-1,1-diacetic acid], for which, in data set [1], the “Difference (pK2 - pK1)” value was determined as 3.36. In data set [2], the “First acid dissociation index (pK1)” value was 3.53 and the “Second dissociation index (pK2)” value is on record as 6.89.
Turning to `CC(C(=O)O)C(=O)O` [2-methylmalonic acid], the “Difference (pK2 - pK1)” value in data set [1] was 2.71. Also, in data set [2], the “First acid dissociation index (pK1)” value is given as 3.05 and the “Second dissociation index (pK2)” value is 5.76.
As for `CC(C)(C)C(C(=O)O)C(=O)O` [2-t-butylmalonic acid], the “Difference (pK2 - pK1)” value in data set [1] amounted to 4.12. Further, in data set [2], the “First acid dissociation index (pK1)” value is 2.92 and the “Second dissociation index (pK2)” value is reported as 7.04.
In the case of `CCC(CC)(CC(=O)O)CC(=O)O` [3,3-diethylglutaric acid], the “Difference (pK2 - pK1)” value in data set [1] was determined as 3.75. Further, in data set [2], the “First acid dissociation index (pK1)” value was 3.67 and the “Second dissociation index (pK2)” value was 7.42.
On to `CC(C)C(CC(=O)O)(CC(=O)O)C(C)C` [3,3-diisopropylglutaric acid], for which the “Difference (pK2 - pK1)” value in data set [1] is 4.05. Besides, in data set [2], the “First acid dissociation index (pK1)” value is reported as 3.65 and the “Second dissociation index (pK2)” value is given as 7.68.
On to `CC1(C)[C@H](C(=O)O)[C@@H]1C(=O)O` [3,3-dimethyl-cis-1,2-cyclopropanedicarboxylic acid], for which the “Difference (pK2 - pK1)” value in data set [1] is listed as 5.56. Further, in data set [2], the “First acid dissociation index (pK1)” value is given as 2.61 and the “Second dissociation index (pK2)” value is recorded as 8.17.
For `CC(C)(CC(=O)O)CC(=O)O` [3,3-dimethylglutaric acid], the “Difference (pK2 - pK1)” value in data set [1] is on record as 2.60. In addition, in data set [2], the “First acid dissociation index (pK1)” value is given as 3.85 and the “Second dissociation index (pK2)” value is given as 6.45.
For `O=C(O)CC(CC(=O)O)(c1ccccc1)c1ccccc1` [3,3-diphenylglutaric acid], the “Difference (pK2 - pK1)” value in data set [1] worked out at 2.79. In addition, in data set [2], the “First acid dissociation index (pK1)” value was 4.02 and the “Second dissociation index (pK2)” value was 6.81.
`CCCC(CCC)(CC(=O)O)CC(=O)O` [3,3-dipropylglutaric acid]: the “Difference (pK2 - pK1)” value in data set [1] was found to be 3.83. In addition, in data set [2], the “First acid dissociation index (pK1)” value is listed as 3.65 and the “Second dissociation index (pK2)” value is 7.48.
Turning to `CCC(CC(=O)O)(CC(=O)O)c1ccccc1` [3-ethyl-3-phenylglutaric acid], the “Difference (pK2 - pK1)” value in data set [1] amounted to 3.06. In addition, in data set [2], the “First acid dissociation index (pK1)” value was 3.89 and the “Second dissociation index (pK2)” value was 6.95.
In the case of `CC(C)C(C)(CC(=O)O)CC(=O)O` [3-isopropyl-3-methylglutaric acid], in data set [1], the “Difference (pK2 - pK1)” value is given as 3.14. Also, in data set [2], the “First acid dissociation index (pK1)” value is reported as 3.78 and the “Second dissociation index (pK2)” value is reported as 6.92.
In the case of `CCC(C)(CC(=O)O)CC(=O)O` [3-methyl-3-ethylglutaric acid], the “Difference (pK2 - pK1)” value in data set [1] is reported as 3.08. In addition, in data set [2], the “First acid dissociation index (pK1)” value is reported as 3.62 and the “Second dissociation index (pK2)” value is 6.70.
For `CC(CC(=O)O)(CC(=O)O)c1ccccc1` [3-methyl-3-phenylglutaric acid], in data set [1], the “Difference (pK2 - pK1)” value stood at 2.05. In data set [2], the “First acid dissociation index (pK1)” value is given as 4.12 and the “Second dissociation index (pK2)” value was 6.17.
Take `CC1CCCC(CC(=O)O)(CC(=O)O)C1` (centres unmarked) [3-methylcyclohexyl-1,1-diacetic acid]: the “Difference (pK2 - pK1)” value in data set [1] was 2.59. For the same molecule, in data set [2], the “First acid dissociation index (pK1)” value is listed as 3.49 and the “Second dissociation index (pK2)” value is given as 6.08.
Turning to `CC1CCC(CC(=O)O)(CC(=O)O)C1` (centres unmarked) [3-methylcyclopentyl-1,1-diacetic acid], in data set [1], the “Difference (pK2 - pK1)” value is 2.95. For the same molecule, in data set [2], the “First acid dissociation index (pK1)” value was 3.79 and the “Second dissociation index (pK2)” value is on record as 6.74.
Regarding `CCCC(CC(=O)O)(CC(=O)O)c1ccccc1` [3-phenyl-3-propylglutaric acid], the “Difference (pK2 - pK1)” value in data set [1] is recorded as 3.06. Further, in data set [2], the “First acid dissociation index (pK1)” value was 3.88 and the “Second dissociation index (pK2)” value was 6.94.
For the molecule `CC(C)(C)C(C)(CC(=O)O)CC(=O)O` [3-t-buthyl-3-methylglutaric acid], the “Difference (pK2 - pK1)” value in data set [1] was found to be 3.88. Further, in data set [2], the “First acid dissociation index (pK1)” value is given as 3.61 and the “Second dissociation index (pK2)” value is 7.49.
`CC1CCC(CC(=O)O)(CC(=O)O)CC1` [4-methylcyclohexyl-1,1-diacetic acid]: the “Difference (pK2 - pK1)” value in data set [1] worked out at 2.61. For the same molecule, in data set [2], the “First acid dissociation index (pK1)” value is recorded as 3.49 and the “Second dissociation index (pK2)” value is on record as 6.10.
On to `O=C(O)[C@H]1CC[C@H]1C(=O)O` [Cis-1,2-cyclobutanedicarboxylic acid], for which the “Difference (pK2 - pK1)” value in data set [1] is 2.07. For the same molecule, in data set [2], the “First acid dissociation index (pK1)” value was 4.16 and the “Second dissociation index (pK2)” value is given as 6.23.
Regarding `O=C(O)[C@H]1CCCCC[C@H]1C(=O)O` [Cis-1,2-cycloheptanedicarboxylic acid], the “Difference (pK2 - pK1)” value in data set [1] worked out at 3.73. For the same molecule, in data set [2], the “First acid dissociation index (pK1)” value was 3.87 and the “Second dissociation index (pK2)” value is given as 7.60.
Consider `O=C(O)[C@H]1CCCC[C@H]1C(=O)O` [Cis-1,2-cyclohexanedicarboxylic acid], for which the “Difference (pK2 - pK1)” value in data set [1] is 2.49.
As for `O=C(O)/C=C\C(=O)O` [Maleic acid], the “Difference (pK2 - pK1)” value in data set [1] came to 4.08.
As for “alkenylsuccinic acid carrying an alkenyl group having 12 carbon atoms [a-3]”, in data set [1], the “first acid dissociation index” value was determined as 4.06 and the “second acid dissociation index” value was found to be 6.01.
In the case of “alkenylsuccinic acid carrying an alkenyl group having 14 carbon atoms [a-4]”, in data set [1], the “first acid dissociation index” value amounted to 4.01 and the “second acid dissociation index” value was determined as 6.12.
